Results reported in patent US10160771B2, “Hepatitis C virus inhibitors and uses thereof in preparation of drugs” (priority 2014, dated 2018).

Experiments:
[1] = system: HCV genotype 1b (HCV-1b) replicon cells; test: HCV genotype 1b replicon luciferase assay (EC50); assay type: cell-based, hepatitis C virus genotype 1b (Con1 clone); conditions: 3 days, luciferase (Bright-Glo)
Summary of the method: (§1)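 EC50 values come from nonlinear fitting of inhibition derived from replicon luciferase signal. Cells (8000/well) were treated 3 days with duplicate 6-point, 5-fold dilutions, starting at 100, 10 or 1 nM, with 0.5% DMSO.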

[2] = Cell Titer-fluor cell activity assay in HCV-1b replicon cells (CC50); assay type: cell-based
Summary of the method: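 CC50 derived by nonlinear fitting of inhibition % from Cell Titer-fluor signal (405/515 nm, 30 min). Cells: genotype 1b Con1 replicon carrying E1202G, T1280I, K1846T, seeded 8000/well with compound for 3 days, 37 °C, 0.5% DMSO; 6 points, 5-fold dilution, top 100, 10 or 1 nM, duplicates.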

[3] = system: HCV genotype 1a (HCV-1a) replicon cells; test: HCV genotype 1a replicon luciferase assay (EC50); assay type: cell-based, hepatitis C virus genotype 1a (H77 clone); conditions: 3 days, luciferase (Bright-Glo)
Summary of the method: as §1

Structure (SMILES)	EC50 ([1]; Hepatitis C virus, 72 h) [nM]	CC50 at 3 days [2] [nM]	EC50 ([3]; Hepatitis C virus, 72 h) [nM]	EC50 [1] [nM]	EC50 [3] [nM]
COC(=O)N[C@H](C(=O)N1CCC[C@H]1c1ncc(-c2ccc(-c3ccc(-c4cnc([C@H]5C6CCC(C6)[C@@H]5C(=O)NCc5cccs5)[nH]4)cc3)cc2)[nH]1)C(C)C (stereo partly drawn) [AA_196_A]	0.001 to 0.1	> 1	1 to 10		
COC(=O)N[C@H](C(=O)N1CCC[C@H]1c1nc2cc(-c3ccc(-c4[nH]c([C@@H]5CCCN5C(=O)[C@@H](NC(=O)OC)C(C)C)c5c4CCC5)cc3)ccc2[nH]1)C(C)C [AG_063]	0.001 to 0.1	> 1	10 to 100		
COC(=O)N[C@H](C(=O)N1CCC[C@H]1c1ncc(-c2ccc(-c3ccc(-c4cnc(C5C6CCC(C6)[C@H]5C(=O)NNc5nccnc5Cl)[nH]4)cc3)cc2)[nH]1)[C@@H](C)OC (stereo partly drawn) [AA_250_B]	1 to 10	> 1	10 to 100		
COC(=O)N[C@H](C(=O)N1CCC[C@H]1c1ncc(-c2ccc(-c3ccc(-c4cnc(C5C6CCC(C6)[C@H]5C(=O)NCc5cccnc5SC)[nH]4)cc3)cc2)[nH]1)[C@@H](C)OC (stereo partly drawn) [AA_260_B]	0.001 to 0.1	> 1	10 to 100		
CNC(=O)[C@@H](NC(=O)[C@@H]1[C@@H]2CC[C@@H](C2)[C@H]1c1ncc(-c2ccc(-c3ccc(-c4cnc([C@@H]5CCCN5C(=O)[C@@H](NC(=O)OC)C(C)C)[nH]4)cc3)cc2)[nH]1)C(C)C [AA_298_ENDOA2]	0.001 to 0.1	> 1	1 to 10		
COC(=O)N[C@H](C(=O)N1C[C@@H](OC)C[C@H]1c1ncc(-c2ccc(-c3ccc(-c4cnc([C@@H]5C6CCC(C6)[C@H]5C(=O)NCc5cccnc5)[nH]4)cc3)cc2)[nH]1)[C@@H](C)OC (stereo partly drawn) [AA_231_A]	0.001 to 0.1	> 1	0.101 to 1		
COC(=O)N[C@H](C(=O)N1CCCC1c1ncc(-c2ccc3c(c2)oc2cc(-c4ccc([C@@H]5CCCN5C(=O)[C@@H](NC(=O)OC)[C@@H](C)OC)[nH]4)ccc23)[nH]1)[C@@H](C)OC (stereo partly drawn) [AG_103]	0.001 to 0.1	> 1	1 to 10		
COC(=O)N[C@H](C(=O)N1CCC[C@H]1c1ncc(-c2ccc(-c3ccc(-c4cnc(C5C6CCC(C6)[C@@H]5C(=O)NCc5cccnc5OC)[nH]4)cc3)cc2)[nH]1)[C@@H](C)OC (stereo partly drawn) [AA_257_A]	0.101 to 1	> 1	1 to 10		
COC(=O)N[C@H](C(=O)N1CCC[C@@H]1c1[nH]c(-c2ccc(-c3ccc(-c4cnc([C@@H]5CCCN5C(=O)[C@@H](NC(=O)OC)C(C)C)[nH]4)cc3)cc2)c2c1CCCO2)C(C)C [AG_114_B]	0.101 to 1	> 1	10 to 100		
COC(=O)N[C@@H](CO)C(=O)N1CCC[C@H]1c1ncc(-c2ccc(-c3ccc(-c4ccc([C@@H]5CCCN5C(=O)[C@@H](NC(=O)OC)C(C)OC)[nH]4)cc3)cc2)[nH]1 (stereo partly drawn) [AG_119]	0.001 to 0.1	> 1	0.101 to 1		
COC[C@H](NC(=O)OC)C(=O)N1CCC[C@H]1c1ncc(-c2ccc(-c3ccc(-c4[nH]c([C@@H]5CCCN5C(=O)[C@@H](NC(=O)OC)C(C)OC)c5c4COC5)cc3)cc2)[nH]1 (stereo partly drawn) [AG_113]	0.001 to 0.1	> 1	0.101 to 1		
COC(=O)N[C@H](C(=O)N1CCC[C@H]1c1ncc(-c2ccc(-c3ccc(-c4cnc([C@H]5C6CCC(C6)C5C(=O)NCc5cccnc5)[nH]4)cc3)nc2)[nH]1)[C@@H](C)OC (stereo partly drawn) [AA_242_A]	0.101 to 1	> 1	10 to 100		
COC(=O)NC(C(=O)N1CCCC1c1ccc(-c2ccc3c(c2)C(C)(C)c2cc(-c4cnc([C@@H]5CCCN5C(=O)[C@@H](NC(=O)OC)C(C)C)[nH]4)ccc2-3)[nH]1)[C@@H](C)OC (stereo partly drawn) [AG_085]	0.001 to 0.1	> 1	10 to 100		
COC(=O)N[C@H](C(=O)N1CCC[C@H]1c1ncc(-c2ccc(-c3ccc(-c4cnc([C@H]5C6CCC(C6)[C@@H]5C(=O)NCc5cccnc5O)[nH]4)cc3)cc2)[nH]1)C(C)C (stereo partly drawn) [AA_228]	0.001 to 0.1	> 1	1 to 10		
COC(=O)N[C@H](C(=O)N1CCC[C@H]1c1ncc(-c2ccc(-c3ccc(-c4cnc([C@H]5C6CCC(C6)[C@@H]5C(=O)NCc5ccccc5N)[nH]4)cc3)cc2)[nH]1)C(C)C (stereo partly drawn) [AA_194]	0.001 to 0.1	> 1	10 to 100		
COC(=O)N[C@H](C(=O)N1CCC[C@H]1c1ncc(-c2ccc(-c3ccc(-c4[nH]c([C@@H]5CCCN5C(=O)[C@@H](NC(=O)OC)C(C)C)c5c4OCC5)cc3)cc2)[nH]1)C(C)C [AG_122_A]		> 1		0.001 to 0.1	1 to 10
COC(=O)N[C@H](C(=O)N1CCC[C@H]1c1ncc(-c2ccc(-c3ccc(-c4cnc([C@H]5CCCC[C@@H]5C(=O)N(NC(=O)OC)C(C)C)[nH]4)cc3)cc2)[nH]1)C(C)C [AA_091_B]	0.101 to 1	> 10	10 to 100		
